ChEMBL document CHEMBL4823289, “Conformational-Analysis-Guided Discovery of 2,3-Disubstituted Pyridine IDO1 Inhibitors” (ACS Med Chem Lett, 2021)

Tests used:
[1] = biological target: T1, Indoleamine 2,3-dioxygenase 1 (Homo sapiens, UniProt P14902); experiment: Inhibition of IDO1 in IFNgamma-stimulated human HeLa cells preincubated for 2 hrs followed by recombinant human IFNgamma stimulation and measured after 18 hrs by fluorescence based microplate reader assay
[2] = Metabolic stability in rat liver microsomes assessed as parent compound remaining at 0.5 uM after 10 mins incubation by LC-MS/MS analysis relative to control; assay type: ADME, Microsome; conditions: read-out: Activity
[3] = Metabolic stability in human liver microsomes assessed as parent compound remaining at 0.5 uM after 10 mins incubation by LC-MS/MS analysis relative to control; assay type: ADME, Microsome; conditions: read-out: Activity
[4] = biological target: Indoleamine 2,3-dioxygenase 1 (Mus musculus, UniProt P28776); experiment: Inhibition of IDO1 in IFNgamma-stimulated mouse M109 cells preincubated for 2 hrs followed by recombinant murine IFNgamma stimulation and measured after 18 hrs by fluorescence based microplate reader assay; assay type: cell-based
Sequence of Indoleamine 2,3-dioxygenase 1 (Mus musculus, UniProt P28776) (P28776 whole entry): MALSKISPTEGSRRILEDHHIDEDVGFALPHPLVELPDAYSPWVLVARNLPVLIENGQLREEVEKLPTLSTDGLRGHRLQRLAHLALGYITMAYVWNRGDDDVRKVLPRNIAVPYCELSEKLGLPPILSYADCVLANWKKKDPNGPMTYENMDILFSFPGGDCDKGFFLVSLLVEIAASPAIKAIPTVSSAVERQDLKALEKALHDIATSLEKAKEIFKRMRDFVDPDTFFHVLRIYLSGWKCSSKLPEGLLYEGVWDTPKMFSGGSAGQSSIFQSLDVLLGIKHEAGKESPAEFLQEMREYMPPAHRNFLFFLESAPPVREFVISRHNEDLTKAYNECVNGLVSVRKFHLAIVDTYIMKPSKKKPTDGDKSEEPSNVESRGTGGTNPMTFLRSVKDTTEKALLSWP

[5] = Metabolic stability in mouse liver microsomes assessed as parent compound remaining at 0.5 uM after 10 mins incubation by LC-MS/MS analysis relative to control; assay type: ADME, Microsome; conditions: read-out: Activity
[6] = biological target: T1, Indoleamine 2,3-dioxygenase 1; experiment: Inhibition of IDO1 in IFNgamma/LPS-stimulated human whole blood preincubated for 4 hrs followed by IFNgamma/LPS stimulation and incubated for 18 hrs by Rapid-fire mass spectrometry analysis; assay type: tissue-based
[7] = Protein binding in mouse assessed as free fraction relative to control; assay type: ADME
[8] = Protein binding in human assessed as free fraction relative to control; assay type: ADME
[9] = biological target: Indoleamine 2,3-dioxygenase 1 (Mus musculus) (UniProt P28776); experiment: In vivo inhibition of IDO1 in mouse xenografted with human SK-OV-3 cells assessed as reduction in tumor kynurenine AUEC at 60 mg/kg, po QD for 5 days measured up to 24 hrs after dosing relative to control; assay type: functional, organism-based; parameters: scale not given: the % may be the effect or the level left; conditions: time 5.0 day
Sequence of Indoleamine 2,3-dioxygenase 1 (Mus musculus) (P28776 whole entry, looked up): as the sequence (P28776 whole entry) above

[10] = AUC (0 to 24 hrs) in human SK-OV-3 cells xenografted in nu/nu mouse xenograft model measured in tumor at 60 mg/kg, po QD; assay type: ADME, organism-based; parameters: time < 24 hr, route oral, dose 60 mg/kg

T1 sequence (P14902 whole entry): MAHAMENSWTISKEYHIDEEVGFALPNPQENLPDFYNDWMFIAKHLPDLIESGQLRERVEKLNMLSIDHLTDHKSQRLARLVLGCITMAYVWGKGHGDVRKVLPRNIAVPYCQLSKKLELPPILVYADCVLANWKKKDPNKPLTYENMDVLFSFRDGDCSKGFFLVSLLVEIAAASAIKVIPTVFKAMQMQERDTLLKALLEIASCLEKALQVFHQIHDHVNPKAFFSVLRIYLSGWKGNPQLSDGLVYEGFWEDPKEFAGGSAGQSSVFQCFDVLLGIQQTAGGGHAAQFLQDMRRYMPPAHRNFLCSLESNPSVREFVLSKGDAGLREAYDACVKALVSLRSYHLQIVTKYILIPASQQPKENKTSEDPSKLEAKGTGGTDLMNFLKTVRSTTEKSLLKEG

| SMILES | IC50 [1] [nM] | remaining at 10 min, 0.5 µM [2] [%] | remaining at 10 min, 0.5 µM [3] [%] | IC50 [4] [nM] | remaining at 10 min, 0.5 µM [5] [%] | IC50 [6] [nM] | Activity [7] [%] | Activity [8] [%] | Activity [9] [%] | AUC at 24 h [10] [µM·h] |
| --- | --- | --- | --- | --- | --- | --- | --- | --- | --- | --- |
| Cc1c(F)nccc1[C@H]1CC[C@@H]([C@@H](C)NC(=O)c2ccc(Cl)cc2)CC1 | 5 | 1 | 0 | 3 | 1 | 47 |  |  |  |  |
| CC[C@@H](NC(=O)c1ccc(Cl)cc1)[C@H]1CC[C@H](c2ccc(OC(F)F)cc2)CC1 | 14 |  | 94 | 75 | 90 |  |  |  |  |  |
| Cc1cnccc1[C@H]1CC[C@@H]([C@@H](C)NC(=O)c2ccc(Cl)cc2)CC1 | 7 |  | 16 | 3 | 15 |  |  |  |  |  |
| C[C@@H](NC(=O)c1ccc(Cl)cc1)[C@H]1CC[C@@H](c2ccnc3ccc(F)cc32)CC1 |  |  |  |  |  |  | < 0.2 | < 0.3 |  |  |
| Cc1nccc([C@H]2CC[C@@H]([C@@H](C)NC(=O)c3ccc(Cl)cc3)CC2)c1C | 4 |  | 30 | 6 | 3 |  |  |  |  |  |
| CC[C@@H](NC(=O)c1ccc(Cl)cc1)[C@H]1CC[C@H](c2cncc(OC)c2)CC1 | 19 |  | 80 | 31 | 28 |  |  |  |  |  |
| COC[C@@H](NC(=O)c1ccc(Cl)cc1)[C@H]1CC[C@@H](c2ccnc(OC)c2C(F)F)CC1 | 2 | 35 | 68 | 11 | 15 | 4.1 |  |  |  |  |
| CC[C@@H](NC(=O)c1ccc(Cl)cc1)[C@H]1CC[C@H](c2cccc(C)n2)CC1 | 48 |  | 56 | 121 | 8 |  |  |  |  |  |
| CC[C@@H](NC(=O)c1ccc(Cl)cc1)[C@H]1CC[C@H](c2cccc(C(F)(F)F)n2)CC1 | 40 |  | 89 | 40 | 56 |  |  |  |  |  |
| Cc1cc([C@H]2CC[C@@H]([C@@H](C)NC(=O)c3ccc(Cl)cc3)CC2)ccn1 | 12 |  | 1 | 16 | 1 |  |  |  |  |  |
| CC[C@@H](NC(=O)c1ccc(Cl)cc1)[C@H]1CC[C@@H](c2cccc3c2OC(F)(F)O3)CC1 | 43 |  | 0 | 196 | 0 |  |  |  |  |  |
| C[C@@H](C(=O)Nc1ccc(Cl)cc1)[C@H]1CC[C@@H](c2ccnc3ccc(F)cc32)CC1 |  |  |  |  |  |  |  |  | 65 | 18 |
| CC[C@@H](NC(=O)c1ccc(Cl)cc1)[C@H]1CC[C@H](c2cccc(=O)n2C)CC1 | 26 |  | 88 | 97 | 65 |  |  |  |  |  |

Next, values leading:

| IC50 [1] [nM] | remaining at 10 min, 0.5 µM [2] [%] | remaining at 10 min, 0.5 µM [3] [%] | IC50 [4] [nM] | remaining at 10 min, 0.5 µM [5] [%] | IC50 [6] [nM] | Activity [7] [%] | Activity [8] [%] | Activity [9] [%] | AUC at 24 h [10] [µM·h] | SMILES |
| --- | --- | --- | --- | --- | --- | --- | --- | --- | --- | --- |
| 3 | 21 | 68 | 22 | 15 | 11 |  |  |  |  | CC[C@@H](NC(=O)c1ccc(Cl)cc1)[C@H]1CC[C@@H](c2ccnc(OC)c2F)CC1 |
| 2 | 57 | 85 | 6 | 30 | 4.4 |  |  |  |  | CC[C@@H](NC(=O)c1ccc(Cl)cc1)[C@H]1CC[C@@H](c2ccnc(OC)c2C(F)F)CC1 |
| 2 | 34 | 71 | 7 | 15 | 2.8 |  |  |  |  | CC[C@@H](NC(=O)c1ccc(Cl)cc1)[C@H]1CC[C@@H](c2ccnc(OC)c2C)CC1 |
| 475 |  | 3 | > 1000 | 1 |  |  |  |  |  | CC[C@@H](NC(=O)c1ccc(Cl)cc1)[C@H]1CC[C@@H](c2cccnc2OC)CC1 |
| 80 |  | 20 | 193 | 42 |  |  |  |  |  | CC[C@@H](NC(=O)c1ccc(Cl)cc1)[C@H]1CC[C@H](c2nccc(OC)n2)CC1 |
